Source: patent publication US20200009088A1, “COMPOSITIONS AND METHODS FOR TREATING ANDROGEN-INDEPENDENT CANCER” (The Regents of the University of California, priority 2017, published 2020)
“Also recorded” adds a separate entry of the source.

What was measured:
[1] = target: T1, AR-V1 (Homo sapiens, UniProt P10275); test: PSA-luc assay in C4-2B cells, AR-V1; assay type: cell-based; details: FBS, 1 μM overnight, FIG. 14B
T1 construct: expressed in transfected cells; host or cells: C4-2B
From the text: (§1) C4-2B cells were cotransfected with pcDNA, with or without AR-V1, AR-V3, AR-V7, AR-V9 or AR-V12, and with PSA-E/P-luciferase plasmids in FBS condition.

[2] = test system: C4-2-V7 cells; test: Cell growth assay (cell numbers), C4-2-V7; assay type: cell-based; details: C4-2-V7, 0.5 μM + enzalutamide, 48 hours, FIG. 7D
[3] = target: T2, K581R AR mutant (Homo sapiens, UniProt P10275, K581R); test: AR transactivation luciferase assay in HEK 293 cells, K581R; assay type: cell-based; details: luciferase reporter, FIG. 5D
T2 construct: expressed in transfected cells; host or cells: HEK 293
Procedure: (§2) HEK 293 cells were transiently transfected with expression vectors encoding the corresponding mutant AR and an androgen-responsive luciferase reporter gene construct. […] Luciferase activity was then determined.

[4] = target: T3, AR-V7 (Homo sapiens, UniProt P10275); test: AR transactivation luciferase assay in HEK 293 cells, AR-V7; assay type: cell-based; details: luciferase reporter, FIG. 5B
T3 sequence (P10275 1-644 isoform P10275-3): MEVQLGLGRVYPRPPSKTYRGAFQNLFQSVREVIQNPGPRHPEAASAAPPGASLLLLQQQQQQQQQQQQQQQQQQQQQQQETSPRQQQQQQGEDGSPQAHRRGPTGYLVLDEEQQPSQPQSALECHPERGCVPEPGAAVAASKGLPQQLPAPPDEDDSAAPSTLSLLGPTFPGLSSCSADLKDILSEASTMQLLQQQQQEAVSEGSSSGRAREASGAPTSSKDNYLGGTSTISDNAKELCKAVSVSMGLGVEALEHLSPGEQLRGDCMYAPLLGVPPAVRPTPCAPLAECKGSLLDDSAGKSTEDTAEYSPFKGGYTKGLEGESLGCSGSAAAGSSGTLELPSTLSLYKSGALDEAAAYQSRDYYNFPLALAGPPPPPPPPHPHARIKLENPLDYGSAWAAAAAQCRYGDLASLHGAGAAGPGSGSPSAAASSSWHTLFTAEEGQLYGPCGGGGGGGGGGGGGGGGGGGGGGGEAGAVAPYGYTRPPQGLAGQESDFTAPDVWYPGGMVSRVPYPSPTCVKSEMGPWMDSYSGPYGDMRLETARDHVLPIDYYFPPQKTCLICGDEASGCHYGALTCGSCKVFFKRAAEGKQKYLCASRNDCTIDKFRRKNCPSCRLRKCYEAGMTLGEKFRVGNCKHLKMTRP
Procedure: as §2

[5] = target: T4, AR-V12 (Homo sapiens, UniProt P10275); test: PSA-luc assay in C4-2B cells, AR-V12; assay type: cell-based; details: FBS, 1 μM overnight, FIG. 14F
T4 construct: expressed in transfected cells; host or cells: C4-2B
From the text: as §1

[6] = test system: C4-2BMDVR cells; test: ELISA cell death (apoptosis) assay; assay type: cell-based; details: FIG. 8; for cell apoptosis: compound alone, analogs compared with niclosamide
Procedure: To further examine the anti-cancer effects of these compounds, an ELISA cell death assay was performed.

[7] = target: T5, AR-V9 (Homo sapiens, UniProt P10275, DEL470-473/INS56QQQQQ/L57Q); test: PSA-luc assay in C4-2B cells, AR-V9; assay type: cell-based; details: FBS, 1 μM overnight, FIG. 14E
T5 construct: expressed in transfected cells; host or cells: C4-2B
From the text: as §1

[8] = test system: C4-2B AbiR cells; test: Cell growth assay (cell numbers), C4-2B AbiR; assay type: cell-based; details: 0.5 μM + enzalutamide, 48 hours, FIG. 7C
[9] = test system: AR-V3; test: PSA-luc assay in C4-2B cells, AR-V3; assay type: cell-based; details: FBS, 1 μM overnight, FIG. 14C
From the text: as §1

[10] = in vivo; details: male, Sprague-Dawley, rat, in vivo, po, 200 mg/kg
Procedure: Blood samples were obtained at the time points indicated in FIG. 18 (0 minutes, 15 minutes, 30 minutes, 1 hour, 1.5 hours, 2 hours, 4 hours, 6 hours, 8 hours, and 24 hours) and the plasma was isolated for LC-MS analysis.

[11] = test system: CWR22Rv1 cells; test: Cell growth assay (cell numbers), CWR22Rv1; assay type: cell-based; details: for cell proliferation, combination with enzalutamide (MDV): CWR22Rv1, 0.5 μM + enzalutamide, 48 hours, FIG. 7A; for cell growth: CWR22Rv1, 48 hours, increasing doses of niclosamide/analogs, FIG. 6
[12] = target: T3, AR-V7; test: PSA-luc reporter in LNCaP cells co-transfected with AR-V7; details: LNCaP cells co-transfected with AR-V7, FIG. 4
Procedure: The luciferase activity was then determined. * denotes p<0.05.
In addition, the effects on AR transcriptional activity were determined using PSA-luc as a reporter. LNCaP cells were cotransfected with PSA-luc together with or without AR-V7, and treated with the compounds.

[13] = target: T6, V716M AR mutant (Homo sapiens, UniProt P10275, V716M); test: AR transactivation luciferase assay in HEK 293 cells, V716M; assay type: cell-based; details: luciferase reporter, FIG. 5E
T6 construct: expressed in transfected cells; host or cells: HEK 293
Procedure: as §2

[14] = test system: PSA; test: PSA protein expression by ELISA in C4-2 cells overexpressing AR-V7; assay type: cell-based; details: C4-2-V7 cells, FIG. 3; for PSA expression: compound alone, ELISA; for enzalutamide-mediated PSA inhibition: in presence of enzalutamide (MDV)
Procedure: PSA protein expression was determined by ELISA assay. * denotes p<0.05.

[15] = test system: AR variants; test: AR variant protein degradation (cycloheximide, MG132, ubiquitin IP) in C4-2B MDVR cells; assay type: cell-based; details: FIG. 16
Procedure: (§3) “AR-Variants” represents a combination of all forms of AR.
(§4) To determine if the small molecule modulators affect AR-V7 protein expression via protein degradation, CWR22Rv1 and C4-2B MDVR cells were treated with cycloheximide (CHX) and the half-life of AR-V7 protein was measured.
After 0, 2, 4, and 8 hours, whole cell lysate was collected and subjected to Western blot. Half-life of AR-V7 was then calculated.
Whole cell lysate was subsequently collected and subjected to Western blot.
Whole cell lysate was immunoprecipitated with an AR antibody and blot with ubiquitin and AR antibodies.

[16] = test system: AR variants; test: AR variant protein degradation (cycloheximide, MG132, ubiquitin IP) in CWR22Rv1 cells; assay type: cell-based; details: FIG. 15
Procedure: as §3, §4
After 0, 2, 4, and 8 hours, whole cell lysate was collected and subjected to Western blot. The half-life of AR-V7 was then calculated.
Subsequently, the whole cell lysate was collected and subjected to Western blot.
For the data shown in FIG. 15C, CWR22Rv1 cells were treated with Nic, Compound 7, or Compound 31. Subsequently, whole cell lysate was immunoprecipitated with an AR antibody and blotted with ubiquitin and AR antibodies.

[17] = test system: MCF-7 cells; test: Breast cancer cell growth, MCF-7; assay type: cell-based; details: three days, FIG. 20B
[18] = target: T7, T878A AR mutant (Homo sapiens, UniProt P10275, T878A); test: AR transactivation luciferase assay in HEK 293 cells, T878A; assay type: cell-based; details: luciferase reporter, FIG. 5C
T7 construct: expressed in transfected cells; host or cells: HEK 293
Procedure: as §2

SMILES	AR-V1-mediated PSA-luc activity [1]	cell proliferation, combination with enzalutamide (MDV) [2]	K581R mutant AR transactivation [3]	AR-V7 transactivation [4]	AR-V12-mediated PSA-luc activity [5]	cell apoptosis [6]	apoptotic cell death, combination with enzalutamide (MDV) [6]	AR-V9-mediated PSA-luc activity [7]	cell proliferation, combination with enzalutamide (MDV) [8]	AR-V3-mediated PSA-luc activity [9]	AUC(0-inf) [10] [µM·h]	AUC_% Extrap_obs [10]	HL_Lambda_z [10] [min]	cell proliferation, combination with enzalutamide (MDV) [11]	cell growth [11]	AR-V7 mediated PSA-luc activity [12]	V716M mutant AR transactivation [13]	PSA expression [14]	enzalutamide-mediated PSA inhibition [14]	AR variant degradation via the proteasome-ubiquitination system [15]	other results
O=C(Nc1ccc(C(F)(F)F)cc1Cl)c1cc(Cl)ccc1O [Compound 7]	inhibited	further inhibited	significantly blocked	significantly blocked	inhibited	further enhanced	further increased	inhibited	further inhibited	inhibited	4.28	15.35 +/− 3.08%	580.54 ± 86.4	further inhibited	able to inhibit cell growth in a dose-dependent manner	inhibited	significantly blocked	inhibited	further enhanced	degraded	AR variant degradation via the proteasome-ubiquitination system [16]: degraded; breast cancer cell growth [17]: inhibited; T878A mutant AR transactivation [18]: significantly blocked
C=CC(=O)Oc1ccc(Cl)cc1C(=O)Nc1ccc([N+](=O)[O-])cc1Cl [Compound 31]	inhibited	further inhibited	significantly blocked	significantly blocked	inhibited	further enhanced	further increased	inhibited	further inhibited	inhibited	6.48	2.3 +/− 1.85%	276.51 ± 92.17	further inhibited	able to inhibit cell growth in a dose-dependent manner	inhibited	significantly blocked	inhibited; also recorded: strongest effect	further enhanced	degraded	AUC(0-t) [10]: 6.37 µM·h; Cmax [10]: 2690 nM; Tmax [10]: 25 min; Cmax ([10]; Cmax): 2680 nM; AR variant degradation via the proteasome-ubiquitination system [16]: degraded; breast cancer cell growth [17]: inhibited; T878A mutant AR transactivation [18]: significantly blocked
